Measured values from the supplement of paper PMC10307832.

Tests used:
Test in all cases: relative viability (nuclei count vs DMSO), 5 days (fraction); higher = more cells survive
[1] = compound: CC(C)CCN1c2nc(Nc3cc(F)c(O)c(F)c3)ncc2N(C)C(=O)C1C [BI-D1870] + CS(=O)(=O)CCNCc1ccc(-c2ccc3ncnc(Nc4ccc(OCc5cccc(F)c5)c(Cl)c4)c3c2)o1 [Lapatinib] (partner 2 µM)
Summary of the method: (§1)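 Relative viability was taken as the ratio of nuclei in treated wells to nuclei in vehicle wells. Lung cancer cell lines in 1536-well plates received compounds by pin tool one day after seeding, either one drug alone or a fixed anchor-drug dose plus five library-drug doses (not always all listed) in √10 steps. Nuclei were counted on 4× images after 5 days of treatment, and values are medians of duplicate plates.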

[2] = compound: O=c1ncccn1[C@@H]1O[C@H](CO)[C@@H](O)[C@H]1O [Zebularine] + Cc1nc(NC(=O)N2CCC[C@H]2C(N)=O)sc1-c1ccnc(C(C)(C)C(F)(F)F)c1 [Alpelisib] (partner 2 µM)
Summary of the method: as §1

[3] = compound: CC(C)CCN1c2nc(Nc3cc(F)c(O)c(F)c3)ncc2N(C)C(=O)C1C [BI-D1870] + CS(=O)(=O)N1CCN(Cc2cc3nc(-c4cccc5[nH]ncc45)nc(N4CCOCC4)c3s2)CC1 [Pictilisib] (partner 1 µM)
Summary of the method: as §1

[4] = compound: O=c1ncccn1[C@@H]1O[C@H](CO)[C@@H](O)[C@H]1O [Zebularine] + CS(=O)(=O)CCNCc1ccc(-c2ccc3ncnc(Nc4ccc(OCc5cccc(F)c5)c(Cl)c4)c3c2)o1 [Lapatinib] (partner 2 µM)
Summary of the method: as §1

Cell Line | relative viability ([1]; first compound 0.04 µM) | relative viability ([1]; first compound 0.1265 µM) | relative viability ([1]; first compound 0.4 µM) | relative viability ([1]; first compound 1.265 µM) | relative viability ([1]; first compound 4 µM) | relative viability ([2]; first compound 1 µM) | relative viability ([2]; first compound 3.162 µM) | relative viability ([2]; first compound 10 µM) | relative viability ([2]; first compound 31.62 µM) | relative viability ([2]; first compound 100 µM) | relative viability ([3]; first compound 0.04 µM) | relative viability ([3]; first compound 0.1265 µM) | relative viability ([3]; first compound 0.4 µM) | relative viability ([3]; first compound 1.265 µM) | relative viability ([3]; first compound 4 µM) | relative viability ([4]; first compound 1 µM) | relative viability ([4]; first compound 3.162 µM) | relative viability ([4]; first compound 10 µM) | relative viability ([4]; first compound 31.62 µM) | relative viability ([4]; first compound 100 µM)
H3255 | 0.221 | 0.266 | 0.258 | 0.296 | 0.244 | 0.664 | 0.734 | 0.422 | 0.716 | 0.673 | 0.505 | 0.458 | 0.451 | 0.584 | 0.497 | 0.249 | 0.239 | 0.221 | 0.235 | 0.228
201T | 1.01 | 0.97 | 1.05 | 1.02 | 1.03 | 1.07 | 1.06 | 0.859 | 0.992 | 0.877 | 0.672 | 0.624 | 0.716 | 0.684 | 0.642 | 1.05 | 1.09 | 0.902 | 1.06 | 1.11
NCI-H2126 | 0.814 | 0.741 | 0.768 | 0.85 | 0.693 | 0.783 | 0.694 | 0.764 | 0.687 | 0.437 | 0.556 | 0.491 | 0.45 | 0.461 | 0.386 | 0.843 | 0.774 | 0.695 | 0.76 | 0.619
HOP-62 | 1.07 | 1.08 | 0.934 | 1.06 | 0.825 | 0.932 | 0.64 | 0.603 | 0.22 | 0.127 | 0.606 | 0.745 | 0.726 | 0.554 | 0.669 | 1.07 | 0.783 | 0.467 | 0.368 | 0.144
CAL-12T | 0.799 | 0.672 | 0.664 | 1.03 | 0.539 | 1.49 | 1.07 | – | 1.28 | 1.1 | 0.554 | 0.363 | 0.382 | 0.657 | 0.336 | 0.757 | 0.658 | – | 0.701 | 0.633
NCI-H520 | 1 | 0.714 | 0.846 | 0.619 | 0.704 | 1.1 | 0.835 | 0.429 | 0.375 | 0.275 | 0.317 | 0.275 | 0.348 | 0.36 | 0.233 | 1.14 | 0.863 | 0.477 | 0.277 | 0.256
NCI-H1755 | 1.11 | 0.982 | 1.08 | 1.16 | 0.992 | 1.07 | 1.03 | 0.538 | 0.92 | 0.61 | 0.474 | 0.408 | 0.469 | 0.431 | 0.35 | 1.17 | 0.991 | 0.802 | 1.11 | 0.497
NCI-H2023 | 0.903 | 0.745 | 0.886 | 0.764 | 0.59 | 0.697 | 0.551 | 0.533 | 0.53 | 0.287 | 0.271 | 0.199 | 0.221 | 0.235 | 0.153 | 1.03 | 0.686 | 0.786 | 0.717 | 0.292
NCI-H2009 | 1.01 | 0.955 | 0.885 | 0.741 | 0.478 | 1.18 | 1.13 | 0.97 | 0.947 | 0.392 | 0.949 | 0.77 | 0.719 | 0.633 | 0.318 | 0.941 | 0.755 | 0.753 | 0.757 | 0.359
